This note sets out measurements from paper PMC10604720, “Unraveling the Mechanism of Epichaperome Modulation by Zelavespib: Biochemical Insights on Target Occupancy and Extended Residence Time at the Site of Action” (Biomedicines, 2023).

One data set has as its system chaperone assemblies. As to the kind of experiment: Kinetics of chaperone-zelavespib assembly taken from Phase 1 clearance. More on the design: species or system mouse. The note with it: in vivo, fast off-rate. The method, then:
(§1) Figure 1 Biodistribution of zelavespib in MDA-MB-468 tumor-bearing mice. (a) Biodistribution of [^124I]-Zelavespib in MDA-MB-468 tumors, organs, tissues, and plasma as per ref. [32]. Data are presented as means ± s.d., five mice per time point. Curves for blood, lung, heart, muscle, bone, and brain were fitted using a one-phase decay equation, and kinetics of zelavespib clearance were determined. Tumor curve was fitted to a two-phase exponential decay. k, kfast, and kslow are the rate constants. Half-life (T1/2) is computed as ln(2)/k. […] (b) Illustrative schematic showing the distinct binding kinetics of zelavespib to epichaperomes (slow off-rate) and to chaperone assemblies (fast off-rate). The tumor pharmacokinetics profile recorded in the Phase 2 interval may represent a direct reflection of the in vivo kinetics of target–drug unbinding. koff, kinetic rate constant for dissociation of an epichaperome-zelavespib assembly. Rt, retention time. […]

Another data set concerns epichaperomes. Description: In vivo target-drug unbinding kinetics taken from Phase 2 tumor pharmacokinetics. Further details: species or system mouse. The method, then: as §1

Structures are written as SMILES.

`CC(C)NCCCn1c(Sc2cc3c(cc2I)OCO3)nc2c(N)ncnc21` [zelavespib]: in the data set on chaperone assemblies, the “T1/2, chaperone-zelavespib assembly” value was ~ 3 h and the “k Phase 1, chaperone-zelavespib assembly” value is ~ 0.2 h^-1. The “Rt = 1/koff (retention time)” value with epichaperomes (epichaperome-zelavespib assembly) is 67.56 h. The “koff, dissociation of epichaperome-zelavespib assembly” value in the data set with epichaperomes (taken as k of tumor Phase 2) came out at 4.11e-06 s⁻¹.
